Measured values reported in patent publication US10335400B2, “Treatment of tauopathies with mGluR5 antagonists” (priority 2014, dated 2019).

Legend:
tau = assay: Tau phosphorylation (Western blots) in metabolically active rat brain slices; type: cell-based; details: 1 mM BMAA, 2-3 h, adult Wistar rat brain slices
Protocol: Male Wistar rats (Charles River Laboratories), 2-3 months old, were anesthetized by i.p. injection with 50 mg/kg Nembutal. The animals were decapitated when deeply anesthetized. The brains were removed immediately and cooled in ice-cold (4° C.) oxygenated artificial cerebrospinal fluid (aCSF) consisting of 126 mM NaCl, 3.5 mM KCl, 1.2 mM NaH2PO4, 1.3 mM MgCl2, 2 mM CaCl2, 11 mM D(+) glucose, and 25 mM NaHCO3 (pH 7.4) for 7-8 min. Each brain then was divided sagittally, and 400-μm-thick coronal slices were made with a Camden Vibraslicer (WP, Inc.). The slices were transferred into a chamber containing the oxygenated aCSF and were incubated at 33° C. for 2 h in the presence or absence of 1 mM, β-N ? methylamino-L-alanine (BMAA) dissolved in 10 mM NaHCO3 (Sigma). The oxygenation of the aCSF was carried out by bubbling the solution with a mixture of 95% O2 and 5% CO2 during the entire procedure. At the end of incubation, the brain slices were homogenized with homogenizing buffer [50 mM Tris·HCl (pH 7.4), 8.5% (wt/vol) sucrose, 2 mM EDTA, 2 mM EGTA, 10 mM (3-mercaptoethanol, 5 mM benzamidine, 0.5 mM 4-(2-Aminoethyl) benzenesulfonyl fluoride hydrochloride (AEBSF), 4 μg/mL pepstatin A, and 10 μg/mL each of aprotinin and leupepin] at a ratio of 9.0 mL buffer/1.0 g tissue slices. The homogenates were divided into two parts. One part was centrifuged at 16,000×g for 10 min, and the resulting supernatant was used to assay protein phosphatase 2A (PP2A) activity. Into the other half, an equal volume of phosphatase-inhibitor mixture (20 mM 3-glycerophosphate, 2 mM Na3VO4, and 100 mM NaF) was added immediately, and the samples were used for Western blots.
Protein was fractionated by 10% SDS/PAGE, transferred to PVDF membrane, and then blocked with 5% skim milk for 1 h at room temperature. The membrane was probed with anti-IPP2A (5G6, 1:1, 500) (7), anti-I2P2A (10E7, 1:1, 600) (7), anti-tau ˜92e; 1:5,000) (8), anti-tau (R134d; 1:5 000) (9), anti-tau pSer^262/^356 (12E8; 1:500) (10, anti-tau pSer^199, anti-tau pThr^205, anti-tau pThr^212, and pSer^396 (1:1,000) (Biosource), anti-GAPDH (1:2,000) (Santa Cruz Biotechnology), anti-PP2Ac (1:10 000) (BD Transduction Lab), anti pY^307-PP2A and anti-DML^309-PP2A (1:1,000) (Millipore), anti-GSK-3(α/β), anti-pS^9-GSK-3 β, anti-ERK1/2, anti-pT^202/Y^204-ERK1/2, anti-MEK1/2, anti-p9^17/221-MEK1/2, anti-CAMKII, anti-pT^286-CAMKII, anti-p70 S6 kinase, anti-pT^389-p70 S6 kinase, anti-SAPK/JNK, and anti-pT^183/Y^185-SAPK/JNK (1:1,000) (Cell Signaling Technology). The membrane then was incubated with HRP-conjugated secondary antibody (Jackson ImmunoResearch). The protein bands were detected with the enhanced chemiluminescence reagents (Thermo Scientific). Band intensity was measured by Multi-Gauge V3 software (Fuji Photo Film).

PP2A = assay: i.c.v. infusion of BMAA in neonatal rats: PP2Ac Tyr307 phosphorylation and PP2A activity; type: in vivo, rat; details: i.c.v. BMAA 1.3 μmol
Protocol: Wistar rats were bred and maintained under standard environmental conditions (12-h light/dark cycles, 22° C.) and were allowed free access to food and water. The animal experiments were carried out in strict compliance with protocols approved by the Animal Welfare Committee of New York State Institute for Basic Research in Developmental Disabilities. On postnatal d 2 (PND2), pups were individually cryo-anesthetized on ice, and 2 μL of 1.3 μmol BMAA in PBS was injected into lateral ventricle using a 10-μL Hamilton syringe (Hamilton Syringe Co.). Control animals were injected with PBS in an identical manner. After infusion of BMAA, rats were killed within 1, 24, 48, 72, or 96 h, and the brains were used for Western blots and PP2A activity assays.
PP2A activity was assayed with homogenate of rat brain slices using the phosphatase ELISA described previously (5). Briefly, 96-well plates were precoated with a 17-aa phosphopeptide corresponding to tau amino acids 194-207 in which […] was replaced with phosphoserine and to which KKK were added at the C terminus (coating buffer, 35 mM NaHCO3). After overnight blocking with a protein-free blocking solution (Pierce), the enzymatic reaction was performed by adding 2 μg of cell lysate protein in 60 μL of reaction buffer [50 mM TrisHCl (pH 7.0), 2 mM MnCl2, 0.1 mg/mL BSA, 20 mM (β-mercaptoethanol] at 30° C. for 30 min (in the presence or absence of 15 nM of okadaic acid) in a moist chamber. The reaction was stopped by adding 150 μL of Pierce blocking solution containing 50 mM NaF, followed by an overnight incubation with monoclonal antibody Tau-1, which recognizes tau unphosphorylated at Ser^198, Ser^199, and Ser^202. HRP-conjugated secondary antibody treatment was for 60 min at room temperature. Finally 75 μL of 3,3′,5,5′-Tetramethylbenzidine substrate reagent (Sigma) was added, and the colorimetric development was measured using a microtiter plate reader at a wavelength of 650 nm.
Protein was fractionated by 10% SDS/PAGE, transferred to PVDF membrane, and then blocked with 5% skim milk for 1 h at room temperature. […] The protein bands were detected with the enhanced chemiluminescence reagents (Thermo Scientific). Band intensity was measured by Multi-Gauge V3 software (Fuji Photo Film).

## CNC[C@H](N)C(=O)O [BMAA, β-N-methylamino-L-alanine]
tau
  increase in phosphorylation of tau at Ser199: 2.6 fold
  increase in phosphorylation of tau at Ser262/356: 3.4 fold
  increase in phosphorylation of tau at Thr205: 1.8 fold
  increase in phosphorylation of tau at Thr212: 3.7 fold
  phosphorylation of tau at Ser396: not any significant change
PP2A
  PP2A activity in rat brain: decreased
  time at which the decrease in PP2A activity was most significant: 48 h
  time by which pTyr307-PP2Ac decreased to a normal level: 72-96 h
PP2A; for 24-48 h
  level of phosphorylation of PP2Ac at Tyr307 in rat brains: increased markedly
